How the values were obtained:
[1] = target: T1, wt human NUAK1, full length (Homo sapiens, UniProt O60285); assay: TR-FRET LanthaScreen Eu Kinase Binding Assay, NUAK1; conditions: 5 nM Kinase Tracer 236; read-out: IC50, inhibitory activity toward NUAK1
T1 construct: 8 nM wt human NUAK1, full length (ThermoFisher/USA); purchased ThermoFisher/USA
T1 sequence (O60285 1-661): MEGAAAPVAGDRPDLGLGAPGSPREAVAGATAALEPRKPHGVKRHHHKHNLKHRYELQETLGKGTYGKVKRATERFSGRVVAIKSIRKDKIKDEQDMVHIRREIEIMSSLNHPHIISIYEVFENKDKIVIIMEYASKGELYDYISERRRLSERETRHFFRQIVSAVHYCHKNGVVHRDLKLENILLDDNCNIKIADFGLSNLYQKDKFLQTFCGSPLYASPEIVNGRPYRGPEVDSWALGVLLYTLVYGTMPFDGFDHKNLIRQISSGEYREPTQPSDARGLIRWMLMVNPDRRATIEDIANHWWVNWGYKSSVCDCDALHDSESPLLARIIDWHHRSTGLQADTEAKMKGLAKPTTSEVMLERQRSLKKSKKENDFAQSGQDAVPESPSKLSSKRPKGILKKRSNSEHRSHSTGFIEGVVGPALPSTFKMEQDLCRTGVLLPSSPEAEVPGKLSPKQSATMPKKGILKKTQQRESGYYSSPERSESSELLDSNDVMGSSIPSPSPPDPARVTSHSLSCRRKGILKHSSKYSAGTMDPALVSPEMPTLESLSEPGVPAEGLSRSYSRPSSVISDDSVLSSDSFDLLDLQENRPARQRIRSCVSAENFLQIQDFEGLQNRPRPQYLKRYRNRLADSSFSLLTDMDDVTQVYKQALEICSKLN
In short: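 TR-FRET tracer-displacement binding with 8 nM full-length wild-type human NUAK1, 2 nM Eu-anti-His antibody and 5 nM Kinase Tracer 236 in 1× Kinase Buffer A (final). Compound, kinase/antibody and tracer incubated 1 h at room temperature; emission ratios analysed per kit protocol.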

[2] = target: T2, wt human TYK2, catalytic site (Homo sapiens, UniProt P29597); assay: HTRF KinEASE assay, TYK2; type: biochemical; conditions: 1 μM ATP; read-out: IC50, inhibitory activity toward TYK2
T2 construct: 2 nM wt human TYK2, catalytic site (SignalChem/CAN); purchased SignalChem/CAN
T2 sequence (P29597 897-1176 limits assumed): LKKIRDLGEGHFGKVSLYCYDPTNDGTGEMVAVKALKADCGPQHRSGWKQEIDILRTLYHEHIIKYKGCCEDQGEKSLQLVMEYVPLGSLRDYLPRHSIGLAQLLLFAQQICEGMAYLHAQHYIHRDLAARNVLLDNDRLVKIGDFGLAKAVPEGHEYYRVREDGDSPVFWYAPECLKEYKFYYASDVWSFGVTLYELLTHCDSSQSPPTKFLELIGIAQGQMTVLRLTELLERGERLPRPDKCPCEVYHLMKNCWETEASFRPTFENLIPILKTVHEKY
In short: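 2 nM wt human TYK2 catalytic domain with 1 μM biotinylated TK substrate and 1 μM ATP in 1× kinase buffer was incubated ≥30 min at room temperature. Antibody and streptavidin-XL665 were added, and HTRF emission ratios were read after 60 min.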

SMILES	IC50 [1] [nM]	IC50 [2] [nM]
COc1ccc2c(c1F)N=C(c1c(F)cccc1F)Nc1cn[nH]c1-2 [Compound 169, 5-(2,6-difluorophenyl)-7-fluoro-8-methoxy-1,4-dihydrobenzo[d]pyrazolo[3,4-f][1,3]diazepine]	10 to 100	10 to 100
Fc1cc(F)c(C2=Nc3cn[nH]c3-c3cc(F)ccc3N2)c(F)c1 [Compound 203, 9-fluoro-5-(2,4,6-trifluorophenyl)-1,6-dihydrobenzo[d]pyrazolo[3,4-f][1,3]diazepine]	10 to 100	100 to 1000
O=C(NCCF)c1cc2c(cc1F)-c1n[nH]cc1N=C(c1c(F)cccc1F)N2 [Compound 216, 5-(2,6-difluorophenyl)-9-fluoro-N-(2-fluoroethyl)-2,6-dihydrobenzo[d]pyrazolo[3,4-f][1,3]diazepine-8-carboxamide]	10 to 100	10 to 100
FC(F)Oc1ccc2c(c1)-c1[nH]ncc1N=C(c1c(Cl)cccc1Cl)N2 [Compound 90, 5-(2,6-dichlorophenyl)-9-(difluoromethoxy)-1,6-dihydrobenzo[d]pyrazolo[3,4-f][1,3]diazepine]	100 to 1000	100 to 1000
Fc1cc2c(cc1OC1CCOCC1)N=C(c1c(F)cccc1F)Nc1c[nH]nc1-2 [Compound 220, 5-(2,6-difluorophenyl)-9-fluoro-8-((tetrahydro-2H-pyran-4-yl)oxy)-2,4-dihydrobenzo[d]pyrazolo[3,4-f][1,3]diazepine]	100 to 1000	10 to 100
Fc1ccc(Cl)c(F)c1C1=Nc2ccccc2-c2[nH]ncc2N1 [Compound 18, 5-(3-chloro-2,6-difluorophenyl)-1,4-dihydrobenzo[d]pyrazolo[3,4-f][1,3]diazepine]	100 to 1000	100 to 1000
Fc1ccc2c(c1)-c1n[nH]cc1NC(c1c(F)cc(OC(F)(F)F)cc1F)=N2 [Compound 214, 5-(2,6-difluoro-4-(trifluoromethoxy)phenyl)-9-fluoro-2,4-dihydrobenzo[d]pyrazolo[3,4-f][1,3]diazepine]	100 to 1000	100 to 1000
OCCNc1cc(F)c(C2=Nc3c[nH]nc3-c3ccccc3N2)c(F)c1 [Compound 150, 2-((4-(2,6-dihydrobenzo[d]pyrazolo[3,4-f][1,3]diazepin-5-yl)-3,5-difluorophenyl)amino)ethan-1-ol]	100 to 1000	100 to 1000
Fc1cccc(F)c1C1=Nc2cc(-c3ccn[nH]3)ccc2-c2[nH]ncc2N1 [Compound 159, 5-(2,6-difluorophenyl)-8-(1H-pyrazol-5-yl)-1,4-dihydrobenzo[d]pyrazolo[3,4-f][1,3]diazepine]	10 to 100	10 to 100
CC(C)(C)NC(=O)c1cc2c(cc1Cl)-c1n[nH]cc1N=C(c1c(F)cccc1F)N2 [Compound 201, N-(tert-butyl)-9-chloro-5-(2,6-difluorophenyl)-2,6-dihydrobenzo[d]pyrazolo[3,4-f][1,3]diazepine-8-carboxamide]	100 to 1000	10 to 100
NC(=O)c1ccc2c(c1)-c1[nH]ncc1N=C(c1c(F)cccc1Cl)N2 [Compound 94, 5-(2-chloro-6-fluorophenyl)-1,6-dihydrobenzo[d]pyrazolo[3,4-f][1,3]diazepine-9-carboxamide]	10 to 100	100 to 1000
Fc1cc2c(cc1-c1ccccc1)N=C(c1c(F)cccc1F)Nc1c[nH]nc1-2 [Compound 231, 5-(2,6-difluorophenyl)-9-fluoro-8-phenyl-2,4-dihydrobenzo[d]pyrazolo[3,4-f][1,3]diazepine]	10 to 100	10 to 100
CCC(C)Oc1cc2c(cc1F)-c1n[nH]cc1N=C(c1c(F)cccc1Cl)N2 (centres unmarked) [Compound 239, 8-(sec-butoxy)-5-(2-chloro-6-fluorophenyl)-9-fluoro-2,6-dihydrobenzo[d]pyrazolo[3,4-f][1,3]diazepine]	100 to 1000	10 to 100
Fc1ccc(-c2ccc3c(c2)N=C(c2c(F)cccc2Cl)Nc2c[nH]nc2-3)cc1 [Compound 238, 5-(2-chloro-6-fluorophenyl)-8-(4-fluorophenyl)-2,4-dihydrobenzo[d]pyrazolo[3,4-f][1,3]diazepine]	10 to 100	10 to 100
Fc1ccccc1-c1ccc2c(c1)N=C(c1c(F)cccc1Cl)Nc1c[nH]nc1-2 [Compound 234, 5-(2-chloro-6-fluorophenyl)-8-(2-fluorophenyl)-2,4-dihydrobenzo[d]pyrazolo[3,4-f][1,3]diazepine]	< 10	10 to 100
Cc1ccc2c(c1)-c1[nH]ncc1N=C(c1c(F)cccc1[N+](=O)[O-])N2 [Compound 125, 5-(2-fluoro-6-nitrophenyl)-9-methyl-1,6-dihydrobenzo[d]pyrazolo[3,4-f][1,3]diazepine]	10 to 100	100 to 1000
Cc1ccc2c(c1)-c1[nH]ncc1N=C(c1c(C)cccc1F)N2 [Compound 172, 5-(2-fluoro-6-methylphenyl)-9-methyl-1,6-dihydrobenzo[d]pyrazolo[3,4-f][1,3]diazepine]	100 to 1000	100 to 1000
Cc1ccc2c(c1)-c1[nH]ncc1NC(c1c(F)ccc(Br)c1Cl)=N2 [Compound 183, 5-(3-bromo-2-chloro-6-fluorophenyl)-9-methyl-1,4-dihydrobenzo [d]pyrazolo[3,4-f][1,3]diazepine]	10 to 100	100 to 1000
Cc1cc2c(cc1C(=O)O)NC(c1c(F)cccc1F)=Nc1cn[nH]c1-2 [Compound 156, 5-(2,6-difluorophenyl)-9-methyl-1,6-dihydrobenzo[d]pyrazolo[3,4-f][1,3]diazepine-8-carboxylic acid]	100 to 1000	10 to 100
COc1ccc2c(c1)-c1[nH]ncc1N=C(c1c(F)cccc1Cl)N2 [Compound 39, 5-(2-chloro-6-fluorophenyl)-9-methoxy-1,6-dihydrobenzo[d]pyrazolo[3,4-f][1,3]diazepine]	100 to 1000	100 to 1000
Fc1cc2c(cc1-c1cccnn1)N=C(c1c(F)cccc1F)Nc1c[nH]nc1-2 [Compound 225, 5-(2,6-difluorophenyl)-9-fluoro-8-(pyridazin-3-yl)-2,4-dihydrobenzo[d]pyrazolo[3,4-f][1,3]diazepine]	10 to 100	10 to 100
COc1cc2c(cn1)NC(c1c(F)cccc1F)=Nc1cn[nH]c1-2 [Compound 127, 5-(2,6-difluorophenyl)-9-methoxy-1,6-dihydropyrazolo[4,3-d]pyrido[4,3-f][1,3]diazepine]	10 to 100	10 to 100
Fc1cc(F)c(C2=Nc3ccc(Cl)cc3-c3n[nH]cc3N2)c(F)c1 [Compound 194, 9-chloro-5-(2,4,6-trifluorophenyl)-2,4-dihydrobenzo[d]pyrazolo[3,4-f][1,3]diazepine]	10 to 100	100 to 1000
Fc1ccccc1-c1ccc2c(c1)N=C(c1c(F)cccc1F)Nc1c[nH]nc1-2 [Compound 233, 5-(2,6-difluorophenyl)-8-(2-fluorophenyl)-2,4-dihydrobenzo[d]pyrazolo[3,4-f][1,3]diazepine]	10 to 100	10 to 100
CC(C)Oc1cc2c(cc1F)-c1n[nH]cc1N=C(c1c(F)cccc1Cl)N2 [Compound 235, 5-(2-chloro-6-fluorophenyl)-9-fluoro-8-isopropoxy-2,6-dihydrobenzo[d]pyrazolo[3,4-f][1,3]diazepine]	10 to 100	10 to 100
Fc1cccc(Cl)c1C1=Nc2ccc(Cl)cc2-c2[nH]ncc2N1 [Compound 37, 9-chloro-5-(2-chloro-6-fluorophenyl)-1,4-dihydrobenzo[d]pyrazolo[3,4-f][1,3]diazepine]	100 to 1000	100 to 1000
Fc1cccc(F)c1C1=Nc2ccncc2-c2[nH]ncc2N1 [Compound 53, 5-(2,6-difluorophenyl)-1,4-dihydropyrazolo[4,3-d]pyrido[3,4-f][1,3]diazepine]	10 to 100	10 to 100
O=C(O)c1ccc2c(c1)N=C(c1c(F)cccc1F)Nc1cn[nH]c1-2 [Compound 73, 5-(2,6-difluorophenyl)-1,4-dihydrobenzo[d]pyrazolo[3,4-f][1,3]diazepine-8-carboxylic acid]	10 to 100	< 10
